Data taken from US11591355B2 (Peloton Therapeutics, Inc., priority 2017, dated 2023).
pIC50: −log10 of the molar value.

Experiments:
Human CD73 = molecular target: T1, Human CD73 (Homo sapiens, UniProt P21589); assay: CD73 Enzyme Assay; type: biochemical; details: 0.25 nM hCD73, 25 μM AMP, kinetic read at 360 nm; read-out: CD73 Enzyme Assay IC50
T1 construct: purchased R&D Systems; host or cells: CHO cells
T1 sequence (P21589 27-549): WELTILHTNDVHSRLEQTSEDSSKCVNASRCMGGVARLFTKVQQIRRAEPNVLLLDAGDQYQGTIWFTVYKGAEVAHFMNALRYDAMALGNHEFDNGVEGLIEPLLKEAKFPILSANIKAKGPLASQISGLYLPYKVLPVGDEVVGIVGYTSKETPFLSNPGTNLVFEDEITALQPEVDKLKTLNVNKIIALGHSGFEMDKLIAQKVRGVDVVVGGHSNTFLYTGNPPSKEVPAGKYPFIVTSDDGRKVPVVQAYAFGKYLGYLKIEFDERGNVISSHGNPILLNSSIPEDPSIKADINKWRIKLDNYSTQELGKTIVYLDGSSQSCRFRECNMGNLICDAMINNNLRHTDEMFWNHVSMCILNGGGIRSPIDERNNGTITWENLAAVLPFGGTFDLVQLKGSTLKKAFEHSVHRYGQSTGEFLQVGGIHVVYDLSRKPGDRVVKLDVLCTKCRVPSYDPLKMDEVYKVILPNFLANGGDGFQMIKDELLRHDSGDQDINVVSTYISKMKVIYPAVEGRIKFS

[1] = molecular target: T2, CD73 on U138 human neuroglioma cells (Homo sapiens, UniProt P21589); assay: CD73 Cell-Based Assay; details: U138 cells, AMP substrate, 2 hours at 37° C., inorganic phosphate by malachite green
T2 construct: U138 cells were obtained from ATCC and cultured in DMEM with 10% FBS; host or cells: U138 human neuroglioma cells
T2 sequence (P21589 27-549): T1 sequence (P21589 27-549)
How it was run: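 Whole U138 cells washed free of phosphate were incubated with 200 μM AMP (mixture concentration before equal-volume addition) plus compound in HEPES-buffered saline, pH 7.4, for 2 h at 37 °C, 5% CO2. Adenosine-forming activity read as inorganic phosphate released into supernatant by malachite green.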

Row | pIC50 (Human CD73) | pIC50 [1] | Compound
1 | 7.00 to 8.00 | > 8.00 | N#Cc1nc(NC2CC3CC3C2)c2cnn([C@@H]3O[C@H](CS(=O)(=O)CP(=O)(O)O)[C@@H](O)[C@H]3O)c2n1 (stereo partly drawn) [Compound 300, [(2S,3S,4R,5R)-5-[4-(3-bicyclo[3.1.0]-hexanylamino)-6-cyano-pyrazolo[3,4-d]-pyrimidin-1-yl]-3,4-dihydroxy-tetrahydro-furan-2-yl]methyl-sulfonylmethylphos-phonic acid]
2 | 7.00 to 8.00 | > 8.00 | C[C@H](Nc1nc(Cl)nc2c1ccn2[C@@H]1O[C@H](COCP(=O)(O)O)[C@@H](O)[C@H]1O)c1ccc(C#N)cc1 [Compound 117, [(2R,3S,4R,5R)-5-[2-chloro-4-[[(1S)-1-(4-cyanophenyl)ethyl]-amino]pyrrolo[2,3-d]-pyrimidin-7-yl]-3,4-dihydroxy-tetrahydro-furan-2-yl]methoxy-methylphosphonic acid]
3 | > 8.00 | > 8.00 | C[C@H](Nc1nc(Cl)nc2c1ccn2[C@@H]1O[C@H](COCP(=O)(O)O)[C@@H](O)[C@H]1O)c1ccc(Cl)cc1 [Compound 140, [(2R,3S,4R,5R)-5-[2-chloro-4-[[(1S)-1-(4-chlorophenyl)ethyl]-amino]pyrrolo[2,3-d]-pyrimidin-7-yl]-3,4-dihydroxy-tetrahydro-furan-2-yl]methoxy-methylphosphonic acid]
4 | > 8.00 | > 8.00 | N#Cc1nc(N2CC3CCCC3C2)c2cnn([C@@H]3O[C@H](CS(=O)(=O)CP(=O)(O)O)[C@@H](O)[C@H]3O)c2n1 (stereo partly drawn) [Compound 299, [(2S,3S,4R,5R)-5-[4-(3,3a,4,5,6,6a-hexa-hydro-1H-cyclopenta-[c]pyrrol-2-yl)-6-cyano-pyrazolo[3,4-d]-pyrimidin-1-yl]-3,4-dihydroxy-tetrahydro-furan-2-yl]methyl-sulfonylmethylphos-phonic acid]
5 | 7.00 to 8.00 | 7.00 to 8.00 | COc1nc(NC2CCCC2)c2ccn([C@@H]3O[C@H](COCP(=O)(O)O)[C@@H](O)[C@H]3O)c2n1 [Compound 247, [(2R,3S,4R,5R)-5-[4-(cyclopentylamino)-2-methoxy-pyrrolo[2,3-d]pyrimidin-7-yl]-3,4-dihydroxy-tetrahydro-furan-2-yl]methoxy-methylphosphonic acid]
6 | > 8.00 | > 8.00 | C[C@@H](Nc1nc(Cl)nc2c1ccn2[C@@H]1O[C@H](CS(=O)(=O)CP(=O)(O)O)[C@@H](O)[C@H]1O)c1ccc(F)cc1 [Compound 167, [(2S,3S,4R,5R)-5-[2-chloro-4-[[(1R)-1-(4-fluorophenyl)ethyl]-amino]pyrrolo[2,3-d]-pyrimidin-7-yl]-3,4-dihydroxy-tetrahydro-furan-2-yl]methyl-sulfonylmethylphos-phonic acid]
7 | < 6.00 | < 6.00 | Cc1cn([C@@H]2O[C@H](COCP(=O)(O)O)[C@@H](O)[C@H]2O)c2nc(Cl)nc(NC3CCCC3)c12 [Compound 199, [(2R,3S,4R,5R)-5-[2-chloro-4-(cyclopentyl-amino)-5-methyl-pyrrolo[2,3-d]-pyrimidin-7-yl]-3,4-dihydroxy-tetrahydro-furan-2-yl]methoxy-methylphosphonic acid]
8 | 7.00 to 8.00 | 7.00 to 8.00 | O=P(O)(O)COC[C@H]1O[C@@H](n2ccc3c(-c4ccccc4)nc(Cl)nc32)[C@H](O)[C@@H]1O [Compound 212, [(2R,3S,4R,5R)-5-(2-chloro-4-phenyl-pyrrolo[2,3-d]-pyrimidin-7-yl)-3,4-dihydroxy-tetrahydro-furan-2-yl]methoxy-methylphosphonic acid]
9 | > 8.00 | > 8.00 | N#Cc1nc(NC2CCC2)c2ccn([C@@H]3O[C@H](COCP(=O)(O)O)[C@@H](O)[C@H]3O)c2n1 [Compound 110, [(2R,3S,4R,5R)-5-[2-cyano-4-(cyclobutyl-amino)pyrrolo[2,3-d]-pyrimidin-7-yl]-3,4-dihydroxy-tetrahydro-furan-2-yl]methoxy-methylphosphonic acid]
10 | > 8.00 | > 8.00 | O=P(O)(O)COC[C@H]1O[C@@H](n2ncc3c(NC4CCC4)nc(Cl)nc32)[C@H](O)[C@@H]1O [Compound 270, [(2R,3S,4R,5R)-5-[6-chloro-4-(cyclobutyl-amino)pyrazolo[3,4-d]-pyrimidin-1-yl]-3,4-dihydroxy-tetrahydro-furan-2-yl]methoxy-methylphosphonic acid]
11 | > 8.00 | > 8.00 | Cc1ccc([C@H](C)Nc2nc(Cl)nc3c2ccn3[C@@H]2O[C@H](CS(=O)(=O)CP(=O)(O)O)[C@@H](O)[C@H]2O)cc1 [Compound 170, [(2S,3S,4R,5R)-5-[2-chloro-4-[[(1S)-1-(p-tolyl)ethyl]amino]-pyrrolo[2,3-d]-pyrimidin-7-yl]-3,4-dihydroxy-tetrahydro-furan-2-yl]methyl-sulfonylmethylphos-phonic acid]
12 | 7.00 to 8.00 | 7.00 to 8.00 | COC(=O)OCOP(=O)(O)COC[C@H]1O[C@@H](n2ccc3c(NC4CCCC4)nc(Cl)nc32)[C@H](O)[C@@H]1O [Compound 202, [(2R,3S,4R,5R)-5-[2-chloro-4-(cyclopentyl-amino)pyrrolo[2,3-d]-pyrimidin-7-yl]-3,4-dihydroxy-tetrahydro-furan-2-yl]methoxy-methyl-(methoxy-carbonyloxymethoxy)-phosphinic acid]
13 | > 8.00 | > 8.00 | O=P(O)(O)COC[C@H]1O[C@@H](n2ncc3c(N4CC5CC5C4)nc(Cl)nc32)[C@H](O)[C@@H]1O (stereo partly drawn) [Compound 280, [(2R,3S,4R,5R)-5-[4-(3-azabicyclo[3.1.0]-hexan-3-yl)-6-chloro-pyrazolo[3,4-d]-pyrimidin-1-yl]-3,4-dihydroxy-tetrahydro-furan-2-yl]methoxy-methylphosphonic acid]
14 | > 8.00 | > 8.00 | C[C@@H](Nc1nc(Cl)nc2c1ccn2[C@@H]1O[C@H](CS(=O)(=O)CP(=O)(O)O)[C@@H](O)[C@H]1O)c1ccccc1 [Compound 154, [(2S,3S,4R,5R)-5-[2-chloro-4-[[(1R)-1-phenylethyl]amino]-pyrrolo[2,3-d]-pyrimidin-7-yl]-3,4-dihydroxy-tetrahydro-furan-2-yl]methyl-sulfonylmethylphos-phonic acid]
15 | > 8.00 | > 8.00 | C[C@H](Nc1nc(C#N)nc2c1ccn2[C@@H]1O[C@H](COCP(=O)(O)O)[C@@H](O)[C@H]1O)c1ccccc1F [Compound 80, [(2R,3S,4R,5R)-5-[2-cyano-4-[[(1S)-1-(2-fluorophenyl)ethyl]-amino]pyrrolo[2,3-d]-pyrimidin-7-yl]-3,4-dihydroxy-tetrahydro-furan-2-yl]methoxy-methylphosphonic acid]
16 | 7.00 to 8.00 | 7.00 to 8.00 | CC[C@@H](Nc1nc(Cl)nc2c1ccn2[C@@H]1O[C@H](COCP(=O)(O)O)[C@@H](O)[C@H]1O)c1ccccc1 [Compound 77, [(2R,3S,4R,5R)-5-[2-chloro-4-[[(1R)-1-phenylpropyl]amino]-pyrrolo[2,3-d]-pyrimidin-7-yl]-3,4-dihydroxy-tetrahydro-furan-2-yl]methoxy-methylphosphonic acid]

Row | Compound | pIC50 (Human CD73) | pIC50 [1]
17 | O=P(O)(O)COC[C@H]1O[C@@H](n2ccc3c(OC4CCCC4)nc(Cl)nc32)[C@H](O)[C@@H]1O [Compound 219, [(2R,3S,4R,5R)-5-[2-chloro-4-(cyclo-pentoxy)pyrrolo[2,3-d]-pyrimidin-7-yl]-3,4-dihydroxy-tetrahydro-furan-2-yl]methoxy-methylphosphonic acid] | 7.00 to 8.00 | 7.00 to 8.00
